The results in this text go back to ChEMBL document CHEMBL1132555, “Tyrosine kinase inhibitors. 16. 6,5,6-tricyclic benzothieno[3, 2-d]pyrimidines and pyrimido[5,4-b-] and -[4,5-b]ĭndoles as potent inhibitors of the epidermal growth factor receptor tyrosine kinase” (J Med Chem, 1999).

The target of test [1] is T1, Epidermal growth factor receptor (Homo sapiens, UniProt P00533).
Description: Concentration needed to inhibit the phosphorylation of a 14-residue fragment of phospholipase C-gamma1 by Epidermal growth factor receptor (prepared from human A431 carcinoma cell vesicles by immunoaffinity chromatography)
Test [2] addresses T1, Epidermal growth factor receptor. In words: Inhibition of Epidermal growth factor receptor autophosphorylation in A431 cells.
For test [3], the target named is Proto-oncogene tyrosine-protein kinase Src (Homo sapiens) (UniProt P12931). Description: Inhibition of c-Src tyrosine kinase at 50 uM.
Proto-oncogene tyrosine-protein kinase Src (Homo sapiens), sequence (P12931 2-536 limits assumed): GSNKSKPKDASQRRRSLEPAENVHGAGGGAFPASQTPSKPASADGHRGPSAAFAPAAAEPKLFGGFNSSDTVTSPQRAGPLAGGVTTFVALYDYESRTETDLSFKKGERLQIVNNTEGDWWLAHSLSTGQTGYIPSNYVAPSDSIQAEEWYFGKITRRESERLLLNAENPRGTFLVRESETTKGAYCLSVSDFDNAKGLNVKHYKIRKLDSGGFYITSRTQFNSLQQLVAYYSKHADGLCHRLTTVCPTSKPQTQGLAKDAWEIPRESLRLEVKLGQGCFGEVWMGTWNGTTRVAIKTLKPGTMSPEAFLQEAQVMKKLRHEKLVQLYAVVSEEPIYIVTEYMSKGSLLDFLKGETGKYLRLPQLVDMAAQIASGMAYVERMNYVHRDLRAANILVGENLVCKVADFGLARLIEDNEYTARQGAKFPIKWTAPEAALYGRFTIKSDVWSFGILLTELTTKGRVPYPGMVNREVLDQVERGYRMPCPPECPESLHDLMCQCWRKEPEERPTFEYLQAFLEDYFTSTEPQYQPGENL
Test [4] deals with Protein kinase C (PKC) (Homo sapiens) (UniProt O94806+P41743+P17252+P05129+Q05655+P05771+Q05513+Q02156+P24723+Q15139+Q04759). Description: Inhibition of Protein kinase C at 50 uM. It is filed as protein assay.
Test [5] deals with Insulin receptor (Homo sapiens) (UniProt P06213). In words: Inhibition against Insulin receptor kinase at 50 uM.
Insulin receptor (Homo sapiens), sequence (P06213 28-758 limits assumed): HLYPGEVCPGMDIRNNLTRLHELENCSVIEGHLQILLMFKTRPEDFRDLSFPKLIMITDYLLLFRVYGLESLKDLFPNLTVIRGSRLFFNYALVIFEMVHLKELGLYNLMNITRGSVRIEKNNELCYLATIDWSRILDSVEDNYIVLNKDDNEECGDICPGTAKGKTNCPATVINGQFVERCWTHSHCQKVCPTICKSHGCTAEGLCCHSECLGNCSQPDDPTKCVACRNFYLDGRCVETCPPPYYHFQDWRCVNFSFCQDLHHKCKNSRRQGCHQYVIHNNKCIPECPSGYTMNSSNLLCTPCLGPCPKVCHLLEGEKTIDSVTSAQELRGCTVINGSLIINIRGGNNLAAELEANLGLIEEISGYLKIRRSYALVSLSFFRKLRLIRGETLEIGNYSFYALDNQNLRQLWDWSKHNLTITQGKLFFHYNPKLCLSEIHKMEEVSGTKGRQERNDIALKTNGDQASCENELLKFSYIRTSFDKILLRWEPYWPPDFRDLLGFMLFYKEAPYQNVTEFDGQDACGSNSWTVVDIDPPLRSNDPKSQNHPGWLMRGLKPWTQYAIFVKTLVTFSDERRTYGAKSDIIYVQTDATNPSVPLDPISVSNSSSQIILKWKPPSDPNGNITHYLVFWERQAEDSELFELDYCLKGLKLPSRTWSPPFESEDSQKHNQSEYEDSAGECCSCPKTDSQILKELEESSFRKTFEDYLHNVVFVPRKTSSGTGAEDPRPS
Insulin receptor (Homo sapiens), sequence (P06213 763-1382 limits assumed): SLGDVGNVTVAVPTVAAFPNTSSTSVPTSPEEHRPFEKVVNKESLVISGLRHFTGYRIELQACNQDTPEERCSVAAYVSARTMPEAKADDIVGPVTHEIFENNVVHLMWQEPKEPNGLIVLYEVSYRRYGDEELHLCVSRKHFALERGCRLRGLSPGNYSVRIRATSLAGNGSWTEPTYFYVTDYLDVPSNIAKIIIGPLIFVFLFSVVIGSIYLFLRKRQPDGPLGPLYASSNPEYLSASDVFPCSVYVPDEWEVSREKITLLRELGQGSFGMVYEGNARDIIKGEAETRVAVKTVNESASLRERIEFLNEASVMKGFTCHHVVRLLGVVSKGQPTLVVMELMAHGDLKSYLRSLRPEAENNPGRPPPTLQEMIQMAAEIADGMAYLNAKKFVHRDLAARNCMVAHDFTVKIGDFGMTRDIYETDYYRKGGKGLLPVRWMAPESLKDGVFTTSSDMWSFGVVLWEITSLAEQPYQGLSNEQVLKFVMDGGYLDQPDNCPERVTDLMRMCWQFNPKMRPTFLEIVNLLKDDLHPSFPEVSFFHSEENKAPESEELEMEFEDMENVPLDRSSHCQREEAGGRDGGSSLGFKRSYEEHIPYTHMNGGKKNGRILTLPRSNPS
The target in test [6] is Fibroblast growth factor receptor (Homo sapiens) (UniProt P22607+P11362+P22455+P21802). Description: Inhibition of Fibroblast growth factor receptor at 50 uM. The format is protein assay.
A short description of test [7]: Inhibition of Platelet-derived growth factor receptor at 50 uM.
Test [8] deals with Proto-oncogene tyrosine-protein kinase Src (Homo sapiens) (UniProt P12931). Description: Inhibition against c-Src tyrosine kinase at 1.25 uM.

T1 sequence (P00533 whole entry): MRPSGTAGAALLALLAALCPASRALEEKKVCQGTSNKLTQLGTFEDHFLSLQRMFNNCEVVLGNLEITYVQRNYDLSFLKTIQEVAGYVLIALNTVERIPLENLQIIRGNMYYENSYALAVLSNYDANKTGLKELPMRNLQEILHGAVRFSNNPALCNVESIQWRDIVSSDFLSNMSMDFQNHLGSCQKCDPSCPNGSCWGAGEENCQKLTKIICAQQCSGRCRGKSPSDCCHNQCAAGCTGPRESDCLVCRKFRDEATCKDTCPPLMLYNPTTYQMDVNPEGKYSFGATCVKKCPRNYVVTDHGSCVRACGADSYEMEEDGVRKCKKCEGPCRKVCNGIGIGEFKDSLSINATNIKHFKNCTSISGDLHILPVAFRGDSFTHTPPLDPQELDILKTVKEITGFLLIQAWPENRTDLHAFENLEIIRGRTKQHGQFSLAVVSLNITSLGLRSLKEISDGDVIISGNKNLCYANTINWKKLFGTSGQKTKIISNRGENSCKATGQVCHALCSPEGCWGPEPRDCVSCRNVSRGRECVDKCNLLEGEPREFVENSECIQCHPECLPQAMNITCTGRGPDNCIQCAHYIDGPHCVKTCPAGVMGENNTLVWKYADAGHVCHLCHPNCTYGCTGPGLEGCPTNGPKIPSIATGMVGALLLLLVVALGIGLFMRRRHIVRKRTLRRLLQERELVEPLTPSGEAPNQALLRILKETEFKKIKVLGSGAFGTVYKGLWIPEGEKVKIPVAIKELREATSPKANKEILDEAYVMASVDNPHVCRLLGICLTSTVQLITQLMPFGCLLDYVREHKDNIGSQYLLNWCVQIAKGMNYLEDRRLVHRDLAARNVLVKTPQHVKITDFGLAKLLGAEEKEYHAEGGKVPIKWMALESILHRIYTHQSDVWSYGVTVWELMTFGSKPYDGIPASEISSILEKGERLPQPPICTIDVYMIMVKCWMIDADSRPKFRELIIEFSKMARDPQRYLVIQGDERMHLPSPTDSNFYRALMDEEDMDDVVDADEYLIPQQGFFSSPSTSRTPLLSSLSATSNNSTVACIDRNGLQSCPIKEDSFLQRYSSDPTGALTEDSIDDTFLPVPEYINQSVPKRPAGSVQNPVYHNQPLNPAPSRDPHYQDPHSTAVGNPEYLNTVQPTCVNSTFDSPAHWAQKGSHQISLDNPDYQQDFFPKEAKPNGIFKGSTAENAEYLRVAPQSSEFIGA

The IC50 is the midpoint of a concentration-inhibition curve. Read a low IC50 as greater potency in that assay. In turn, `COc1cccc2c1sc1c(Nc3cccc(Br)c3)ncnc12` gave an IC50 in test [1] of 12.6 nM.

Regarding `Cc1cccc(Nc2cc(NCCO)ncn2)c1`, in test [1], the IC50 was determined as 1 nM.

As usually defined, the inhibition is the percentage by which the read-out fell short of the control. A high value points to a strong effect. `Cc1cccc(Nc2ncnc3c2sc2ccc(N)cc23)c1`: the IC50 in test [1] is 2.1 nM; in test [2], 98 nM. In addition, the inhibition in test [3] is 47%; in test [4], 44%; in test [5], 14%; in test [6], 24%; in test [7], 17%.

Molecule `O=[N+]([O-])c1ccc2sc3c(Nc4ccccc4)ncnc3c2c1` had an IC50 in test [1] of 58 nM. In other words, the double-digit nanomolar range.

`CN(C)CCNc1[nH]cnc2nc3ccccc3c1-2` came in with an IC50 in test [1] of over 10000 nM.

In test [1], `COc1cccc2sc3c(Nc4cccc(Br)c4)ncnc3c12` showed an IC50 of 20 nM.

For `O=[N+]([O-])c1ccc2c(c1)sc1c(Nc3cccc(Br)c3)ncnc12`, in test [1], the IC50 came to 48 nM.

In test [1], `Nc1ccc2sc3c(Nc4cccc(C(F)(F)F)c4)ncnc3c2c1` showed an IC50 of 47 nM. Further, the inhibition in test [3] is 13%; in test [4] it was 51%; in test [5], 0%; in test [6], 17%; in test [7] it was 12%.

`Brc1cccc(Nc2ncnc3c2sc2ccccc23)c1`: the inhibition came to 0% in test [3]; 18% in test [4]; 0% in test [5]; 21% in test [6]; 0% in test [7].

Regarding `CNc1ccc2sc3c(Nc4cccc(Br)c4)ncnc3c2c1`, the IC50 turned out to be 1.1 nM in test [1] and 33 nM in test [2].

As to `CCNc1cc2sc3c(Nc4cccc(Br)c4)ncnc3c2cc1F`, the IC50 came out at 7.9 nM in test [1] and 85 nM in test [2].

Take `CN(C)CCNc1[nH]cnc2c3ccccc3nc1-2`: the IC50 in test [1] was over 100000 nM.

`Cc1nc(Nc2cccc(Br)c2)c2c(n1)[nH]c1ccccc12` yielded an IC50 in test [1] of over 10000 nM.

In turn, `Brc1cccc(Nc2ncnc3sccc23)c1` displayed an IC50 in test [1] of 35 nM.

With `Nc1cccc2c1sc1c(Nc3cccc(Br)c3)ncnc12`, the IC50 in test [1] worked out at 2.7 nM.

Molecule `c1ccc2c(c1)[nH]c1c(NC3CCCCC3)ncnc12` had an IC50 in test [1] of over 100000 nM.

Regarding `COc1ccc2c(c1)sc1c(Nc3cccc(Br)c3)ncnc12`, the inhibition in test [3] was determined as 22%; in test [4], 20%; in test [5], 0%; in test [6], 19%; in test [7], 21%.

In the case of `Nc1ccc2sc3c(Nc4cccc(Br)c4)ncnc3c2c1`, the inhibition in test [4] and in test [5] was 0% in each case.

Regarding `Clc1cccc(Nc2ncnc3c2sc2ncccc23)c1`, in test [1], the IC50 was over 1000 nM.

In the case of `CN(C)c1ccc2sc3c(Nc4cccc(Br)c4)ncnc3c2c1`, inhibition in test [1] was half-maximal at 19.8 nM (IC50).

The molecule `C[C@H](Nc1ncnc2c1sc1ccccc12)c1ccccc1` came in with an IC50 in test [1] of 538 nM. Moreover, the inhibition is 0% in test [3]; 7% in test [4]; 13% in test [5]; 20% in test [6]; 0% in test [7].

As to `Nc1cc2sc3c(Nc4cccc(Br)c4)ncnc3c2cc1F`, the IC50 in test [1] amounted to 1 nM; in test [2] it was 42 nM.

As to `Cc1cccc(Nc2ncnc3c2sc2ccc([N+](=O)[O-])cc23)c1`, the IC50 in test [1] came out at 11 nM.

For `Nc1nc(Nc2cccc(Br)c2)c2c(n1)[nH]c1ccccc12`, the IC50 came out at 147 nM in test [1] and 493 nM in test [2].

For the molecule `Nc1ccc2c(c1)sc1c(Nc3cccc(Br)c3)ncnc12`, in test [1], the IC50 was found to be 0.47 nM.

In test [1], `C[C@@H](Nc1[nH]cnc2c3ccccc3nc1-2)c1ccccc1` registered an IC50 of over 100000 nM.

Regarding `O=[N+]([O-])c1cccc2c1sc1c(Nc3cccc(Br)c3)ncnc12`, half-maximal inhibition in test [1] (IC50) required 158 nM.

As to `COc1ccc2[nH]c3ncnc(Nc4cccc(Br)c4)c3c2c1`, the IC50 in test [1] is 1.2 nM; in test [2], 13 nM. For the same molecule, the inhibition in test [5] was found to be 0%; in test [8] it was 8%; in test [6], 30%; in test [7], 2%.

`COc1cc2sc3c(Nc4cccc(Br)c4)ncnc3c2cc1OC` registered an IC50 in test [1] of 444 nM.

`O=[N+]([O-])c1ccc2sc3c(Nc4cccc(C(F)(F)F)c4)ncnc3c2c1` returned an IC50 in test [1] of 460 nM. The IC50 values of the last two molecules are within 1.5-fold of each other.

Regarding `c1ccc(CNc2ncnc3c2sc2ccccc23)cc1`, the inhibition in test [3] came out at 0%; in test [5], 0%; in test [6] it was 11%; in test [7], 10%.

As to `Cn1c2ccccc2c2c(Nc3cccc(Br)c3)ncnc21`, the IC50 worked out at 742 nM in test [1] and 769 nM in test [2].

In the case of `Brc1cccc(Nc2ncnc3cc4[nH]ccc4cc23)c1`, inhibition in test [1] was half-maximal at 0.39 nM (IC50).
